Legend:
Experiment in all cases: normalised viability (% of control), CellTiter-Blue; higher = more viable cells (about 100 = DMSO control)
Details in all cases: incubation time: 72 h
[1] = tested on: CAL-51
Method: (§1)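 DSRT, CellTiter-Blue viability, 72 h incubation. Signal is normalised to DMSO and benzethonium chloride controls. Value is the normalised response at dose 9.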

[2] = tested on: DU-4475
Method: as §1

[3] = tested on: CAL-148
Method: as §1

[4] = tested on: CAL-85-1
Method: as §1

[5] = tested on: MDA-MB-453
Method: as §1

[6] = tested on: HDQ-P1
Method: as §1

[7] = tested on: CAL-51; remark: listed apart in the source
Method: (§2)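 DSRT, CellTiter-Blue viability, 72 h incubation. Signal is normalised to DMSO and benzethonium chloride controls. Value is the normalised response at dose 6.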

[8] = tested on: DU-4475; remark: listed apart in the source
Method: as §2

[9] = tested on: CAL-148; remark: listed apart in the source
Method: as §2

[10] = tested on: CAL-85-1; remark: listed apart in the source
Method: as §2

[11] = tested on: MDA-MB-453; remark: listed apart in the source
Method: as §2

[12] = tested on: HDQ-P1; remark: listed apart in the source
Method: as §2

[13] = tested on: CAL-51; remark: listed apart in the source
Procedure, shortened: (§3)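 Breast cancer cell lines in 20 µl suspension were seeded onto 384-well plates pre-loaded with compound dissolved in 5 µl medium, then incubated 72 h. CellTiter-Blue reagent (2.5 µl) was added for 2 h at 37 °C and fluorescence read at 560/590 nm. Each plate was normalised to vehicle (100) and a positive kill control (0), with Z'-factor quality control. The value is normalised viability at one listed concentration of the series.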

[14] = tested on: CAL-120
Procedure, shortened: as §3

[15] = tested on: MDA-MB-436
Procedure, shortened: as §3

[16] = tested on: BT-474
Procedure, shortened: as §3

[17] = tested on: MFM-223
Procedure, shortened: as §3

[18] = tested on: DU-4475; remark: listed apart in the source
Procedure, shortened: as §3

[19] = tested on: BT-549
Procedure, shortened: as §3

[20] = tested on: MDA-MB-231
Procedure, shortened: as §3

[21] = tested on: HCC1599
Procedure, shortened: as §3

[22] = tested on: HCC1937
Procedure, shortened: as §3

[23] = tested on: MDA-MB-453; remark: listed apart in the source
Procedure, shortened: as §3

[24] = tested on: Hs578T
Procedure, shortened: as §3

[25] = tested on: MDA-MB-468
Procedure, shortened: as §3

[26] = tested on: HDQ-P1; remark: listed apart in the source
Procedure, shortened: as §3

[27] = tested on: CAL-51; remark: listed apart in the source
Method: (§4)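 DSRT, CellTiter-Blue viability, 72 h incubation. Signal is normalised to DMSO and benzethonium chloride controls. Value is the normalised response at dose 8.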

[28] = tested on: DU-4475; remark: listed apart in the source
Method: as §4

[29] = tested on: CAL-148; remark: listed apart in the source
Method: as §4

[30] = tested on: CAL-85-1; remark: listed apart in the source
Method: as §4

[31] = tested on: MDA-MB-453; remark: listed apart in the source
Method: as §4

[32] = tested on: HDQ-P1; remark: listed apart in the source
Method: as §4

CC[C@]1(O)C[C@H]2CN(CCc3c([nH]c4ccccc34)[C@@](C(=O)OC)(c3cc4c(cc3OC)N(C=O)[C@H]3[C@@](O)(C(=O)OC)[C@H](OC(C)=O)[C@]5(CC)C=CCN6CC[C@]43[C@@H]65)C2)C1 [Vincristine]
Details | normalised viability [%]
[1], 1000 nM | 11.7
[1], 10000 nM | 10.7
[2], 1000 nM | 7.67
[2], 10000 nM | 8.66
[3], 1000 nM | 21.8
[3], 10000 nM | 28.5
[4], 1000 nM | 47.4
[4], 10000 nM | 39.8
[5], 1000 nM | 38.5
[5], 10000 nM | 41.6
[6], 1000 nM | 41.5
[6], 10000 nM | 37.9
[7], 30 nM | 42.3
[7], 300 nM | 12.6
[8], 30 nM | 36.9
[8], 300 nM | 12
[9], 30 nM | 16.5
[9], 300 nM | 24.5
[10], 30 nM | 34.9
[10], 300 nM | 39.6
[11], 30 nM | 29.2
[11], 300 nM | 34.2
[12], 30 nM | 33.5
[12], 300 nM | 27.9
[13], 0.3 nM | 102
[13], 3 nM | 103
[14], 1 nM | 58.2
[14], 10 nM | 23.4
[15], 1 nM | 105
[15], 10 nM | 70.6
[16], 1 nM | 53.4
[16], 10 nM | 47.9
[17], 1 nM | 91.1
[17], 10 nM | 85.5
[18], 0.3 nM | 96.6
[18], 3 nM | 89
[19], 1 nM | 82.7
[19], 10 nM | 43.7
[20], 1 nM | 73.8
[20], 10 nM | 27.5
[21], 1 nM | 84.1
[21], 10 nM | 106
[22], 1 nM | 99.2
[22], 10 nM | 23.1
[23], 0.3 nM | 112
[23], 3 nM | 65
[24], 1 nM | 97.2
[24], 10 nM | 15.5
[25], 1 nM | 54.2
[25], 10 nM | 41.2
[26], 0.3 nM | 100
[26], 3 nM | 96.4
[27], 300 nM | 17.2
[27], 3000 nM | 10.4
[28], 300 nM | 14.8
[28], 3000 nM | 6.84
[29], 300 nM | 20.4
[29], 3000 nM | 26.8
[30], 300 nM | 40.6
[30], 3000 nM | 38.1
[31], 300 nM | 36
[31], 3000 nM | 30.5
[32], 300 nM | 36.6
[32], 3000 nM | 38.9

C[C@]12CC[C@H](O)CC1=CC[C@@H]1[C@@H]2CC[C@]2(C)C(c3cccnc3)=CC[C@@H]12 [Abiraterone]
Details | normalised viability [%]
[1], 5000 nM | 92
[2], 5000 nM | 93.3
[3], 5000 nM | 92.1
[4], 5000 nM | 82.1
[5], 5000 nM | 89.2
[6], 5000 nM | 113
[7], 150 nM | 102
[8], 150 nM | 92.2
[9], 150 nM | 93.8
[10], 150 nM | 93.9
[11], 150 nM | 105
[12], 150 nM | 79.2
[13], 1.5 nM | 104
[14], 5 nM | 81
[15], 5 nM | 101
[16], 5 nM | 116
[17], 5 nM | 102
[18], 1.5 nM | 84.6
[19], 5 nM | 99.7
[20], 5 nM | 86.8
[21], 5 nM | 104
[22], 5 nM | 110
[23], 1.5 nM | 104
[24], 5 nM | 101
[25], 5 nM | 105
[26], 1.5 nM | 104
[27], 1500 nM | 106
[28], 1500 nM | 88.1
[29], 1500 nM | 98.1
[30], 1500 nM | 97.5
[31], 1500 nM | 96
[32], 1500 nM | 125

CC(C)(C#N)c1cc(Cn2cncn2)cc(C(C)(C)C#N)c1 [Anastrozole]
Details | normalised viability [%]
[1], 10000 nM | 104
[2], 10000 nM | 112
[3], 10000 nM | 94.2
[4], 10000 nM | 93.9
[5], 10000 nM | 79.8
[6], 10000 nM | 98.6
[7], 300 nM | 102
[8], 300 nM | 83.5
[9], 300 nM | 96.1
[10], 300 nM | 93.2
[11], 300 nM | 84.1
[12], 300 nM | 78
[13], 3 nM | 112
[14], 10 nM | 84.3
[15], 10 nM | 109
[16], 10 nM | 110
[17], 10 nM | 96.9
[18], 3 nM | 106
[19], 10 nM | 94
[20], 10 nM | 96.3
[21], 10 nM | 98
[22], 10 nM | 90.3
[23], 3 nM | 104
[24], 10 nM | 99.4
[25], 10 nM | 102
[26], 3 nM | 102
[27], 3000 nM | 108
[28], 3000 nM | 96.5
[29], 3000 nM | 87.2
[30], 3000 nM | 82.8
[31], 3000 nM | 103
[32], 3000 nM | 85.3

Source: the supplement of paper PMC4862054
